The results in this text go back to ChEMBL document CHEMBL1156276, “Solvent free synthesis, anti-inflammatory and anticancer activity evaluation of tricyclic and tetracyclic benzimidazole derivatives” (2010).

Holding throughout (assay type): functional
One assay concerns Rattus norvegicus. Put plainly: Antiinflammatory activity against carrageenan-induced paw edema in rat assessed as paw volume at 50 mg/kg, po administered 30 mins before carrageenan challenge measured after 1 to 3 hrs by water plethysmometer relative to control.
Another assay concerns HOP-62. Put plainly: Anticancer activity against human HOP62 cells assessed as cell growth inhibition at 10 uM after 48 hrs by SRB assay. The note with it: HOP-62, 48 h, read-out: GI. A general note: The SRB assay estimates cell density from bound dye.
For another assay, the system named is A549. Put plainly: Anticancer activity against human A549 cells assessed as cell growth inhibition at 10 uM after 48 hrs by SRB assay. The conditions noted are these: A549, 48 h, read-out: GI.
Another assay has as its system PC-3. Briefly: Anticancer activity against human PC3 cells assessed as cell growth inhibition at 10 uM after 48 hrs by SRB assay. The conditions noted are these: PC-3, 48 h, read-out: GI.
The subject of a further assay is MCF7. Briefly: Anticancer activity against human MCF7 cells assessed as cell growth inhibition at 10 uM after 48 hrs by SRB assay. The conditions noted are these: MCF7, 48 h, read-out: GI.
The next assay relates to SF-295. Briefly: Anticancer activity against human SF295 cells assessed as cell growth inhibition at 10 uM after 48 hrs by SRB assay. The conditions noted are these: SF-295, 48 h, read-out: GI.
For another assay, the system named is IGROV-1. Put plainly: Anticancer activity against human IGROV1 cells assessed as cell growth inhibition at 10 uM after 48 hrs by SRB assay. The note with it: IGROV-1, 48 h, read-out: GI.

SMILES strings stand for the structures. Counter-ions that a name gives are not always drawn.

For `O=C1CCc2nc3ccc([N+](=O)[O-])cc3n21`, the Activity in the assay on Rattus norvegicus is recorded as 0%. For the same compound, the inhibition of growth at 10 µM in the assay with HOP-62 was determined as 0%; with A549 it was 5%; in the assay on PC-3 it was 8%; with MCF7 it was 12%; with SF-295 it was 38%; in the assay with IGROV-1 it was 0%.
Consider `O=c1c2ccccc2cc2n1C1CCCCC1N2` (configuration not stated), for which the Activity in the assay on Rattus norvegicus is listed as 34.7%. The inhibition of growth at 10 µM in the assay on HOP-62 came to 12%; with A549, 10%; in the assay with PC-3 it was 6%; in the assay on MCF7, 6%; in the assay on SF-295, 0%; with IGROV-1, 28%.
On to `O=C1c2nccnc2C2=NC3CCCCC3N12` (configuration not stated), for which, in the assay with Rattus norvegicus, the Activity is given as 25.6%. For the same compound, the inhibition of growth at 10 µM in the assay on HOP-62 came out at 6%; with A549, 10%; in the assay with PC-3 it was 15%; with MCF7, 48%; in the assay with SF-295, 37%; with IGROV-1, 28%.
In the case of `O=C1c2nccnc2C2=Nc3ccccc3CN12`, the Activity in the assay with Rattus norvegicus is on record as 28.6%. Besides, the inhibition of growth at 10 µM in the assay with HOP-62 was determined as 23%; in the assay with A549, 48%; in the assay with PC-3 it was 46%; with MCF7, 56%; in the assay with SF-295, 66%; in the assay on IGROV-1, 55%.
`O=C1CCc2nc3ccc(Cl)cc3n21`: the Activity with Rattus norvegicus came to 27.6%. Further, the inhibition of growth at 10 µM in the assay on HOP-62 was 11%; in the assay on A549 it was 3%; in the assay on PC-3, 14%; in the assay on MCF7, 52%; with SF-295 it was 37%; in the assay on IGROV-1, 0%.
Regarding `O=c1c2ccccc2cc2[nH]c3cccc(O)c3n12`, the Activity in the assay on Rattus norvegicus amounted to 31.8%. In addition, the inhibition of growth at 10 µM with HOP-62 amounted to 0%; in the assay on A549, 0%; with PC-3 it was 13%; in the assay on MCF7, 20%; in the assay with SF-295, 55%; in the assay on IGROV-1 it was 15%.
For the compound `O=C1CCc2nc3cccc(O)c3n21`, the Activity in the assay on Rattus norvegicus is 39.2%. In addition, the inhibition of growth at 10 µM in the assay with HOP-62 amounted to 9%; with A549, 0%; in the assay on PC-3, 13%; with MCF7, 22%; with SF-295, 53%; with IGROV-1, 20%.
For the compound `N#Cc1ccc2nc3n(c2c1)C(=O)CC3`, the Activity with Rattus norvegicus is on record as 9%. For the same compound, the inhibition of growth at 10 µM was determined as 0% in the assay with HOP-62; 6% in the assay with A549; 3% in the assay with PC-3; 25% in the assay on MCF7; 52% with SF-295; 21% in the assay with IGROV-1.
With `O=C1CCc2nc3ccc(Br)cc3n21`, the Activity in the assay with Rattus norvegicus is 10%. Besides, the inhibition of growth at 10 µM came out at 16% in the assay on HOP-62; 12% in the assay with A549; 40% in the assay with PC-3; 31% in the assay on MCF7; 0% in the assay with SF-295; 50% in the assay on IGROV-1.
Take `Cc1cc2nc3n(c2cc1C)C(=O)CC3`: in the assay on Rattus norvegicus, the Activity worked out at 39.4%. The inhibition of growth at 10 µM in the assay with HOP-62 stood at 4%; with A549, 0%; with PC-3 it was 7%; in the assay on MCF7, 8%; in the assay on SF-295, 54%; in the assay with IGROV-1, 26%.
Take `CC(=O)O[C@H]1C(=O)[C@@]2(C)[C@H]([C@H](OC(=O)c3ccccc3)[C@]3(O)C[C@H](OC(=O)[C@H](O)[C@@H](NC(=O)c4ccccc4)c4ccccc4)C(C)=C1C3(C)C)[C@]1(OC(C)=O)CO[C@@H]1C[C@@H]2O` [PACLITAXEL]: the inhibition of growth at 10 µM is 42% with HOP-62, 50% in the assay with A549 and 43% in the assay on IGROV-1.
In the case of `Cc1cc2[nH]c3cc4ccccc4c(=O)n3c2cc1C`, the Activity in the assay with Rattus norvegicus came out at 29.6%. The inhibition of growth at 10 µM in the assay with HOP-62 is 0%; in the assay with A549 it was 41%; in the assay on PC-3 it was 39%; in the assay on MCF7, 22%; in the assay with SF-295, 13%; with IGROV-1, 7%.
On to `O=C1c2nccnc2-c2nc3ccccc3n21`, for which the Activity with Rattus norvegicus was 10%. In addition, the inhibition of growth at 10 µM with HOP-62 came out at 10%; in the assay with A549, 0%; with PC-3, 13%; with MCF7, 20%; in the assay on SF-295, 25%; with IGROV-1 it was 15%.
Take `O=C1CCC2=NC3CCCCC3N12` (configuration not stated): in the assay with Rattus norvegicus, the Activity was 19.7%. For the same compound, the inhibition of growth at 10 µM in the assay on HOP-62 stood at 0%; in the assay on A549 it was 2%; in the assay on PC-3 it was 16%; in the assay on MCF7, 13%; in the assay on SF-295 it was 38%; in the assay on IGROV-1 it was 2%.
Regarding `Cc1cccc2nc3n(c12)C(=O)CC3`, in the assay on Rattus norvegicus, the Activity came to 29.9%. In addition, the inhibition of growth at 10 µM in the assay on HOP-62 amounted to 0%; in the assay on A549, 2%; with PC-3, 14%; in the assay on MCF7, 8%; in the assay on SF-295 it was 38%; with IGROV-1, 3%.
For the compound `Cc1cc2nc3n(c2cc1C)C(=O)c1nccnc1-3`, in the assay on Rattus norvegicus, the Activity was 15.9%. In addition, the inhibition of growth at 10 µM came to 0% with HOP-62; 25% in the assay on A549; 39% in the assay with PC-3; 22% in the assay with MCF7; 13% in the assay on SF-295; 7% in the assay on IGROV-1.
With `COc1cccc2c1C(=O)c1c(O)c3c(c(O)c1C2=O)C[C@@](O)(C(=O)CO)C[C@@H]3O[C@H]1C[C@H](N)[C@H](O)[C@H](C)O1` [DOXORUBICIN HYDROCHLORIDE], the results for the inhibition of growth at 10 µM with MCF7 and in the assay with SF-295 were 72% and 69%, respectively.
As to `CO[C@@]12[C@H](COC(N)=O)C3=C(C(=O)C(C)=C(N)C3=O)N1C[C@@H]1N[C@@H]12` [MITOMYCIN], the inhibition of growth at 10 µM was 53% with PC-3 and 43% in the assay on SF-295.
